Experimental data taken from ChEMBL document CHEMBL1201862, “PubChem BioAssay data set” (2004).
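Cultured in 96-well plates, cells were exposed to test compound for 48 hours across five concentrations. GI50 is the concentration that inhibits growth by half.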 Calls of active or inactive are those of the source. Cut-off read from the data, not from the text of the source: active = GI50 up to about 1.1 µM and inactive = higher.

Columns and labels:
Test in all cases: growth of human tumour cells (NCI), 48 h
COLO 205 = tested on: COLO 205
HL-60 = tested on: HL-60
HOP-92 = tested on: HOP-92
HT-29 = tested on: HT-29
Hs-578T = tested on: Hs-578T
IGROV-1 = tested on: IGROV-1
MCF7 = tested on: MCF7
MDA-MB-231 = tested on: MDA-MB-231
MDA-MB-435 = tested on: MDA-MB-435
NCI-H23 = tested on: NCI-H23
NCI/ADR-RES = tested on: NCI/ADR-RES
SK-MEL-2 = tested on: SK-MEL-2
SK-OV-3 = tested on: SK-OV-3
SNB-75 = tested on: SNB-75
SR = tested on: SR
SW-620 = tested on: SW-620
TK-10 = tested on: TK-10
UACC-257 = tested on: UACC-257
UACC-62 = tested on: UACC-62
A498 = tested on: A498

Measured: GI50

Clc1cc2nc(C3CCCO3)[nH]c2cc1Cl (configuration not stated)
inactive: COLO 205 37.1 µM | HL-60 37.7 µM | HOP-92 85.3 µM | HT-29 33.7 µM | Hs-578T 40.9 µM | IGROV-1 61.9 µM | MCF7 29.2 µM | MDA-MB-231 > 100 µM | MDA-MB-435 28.2 µM | NCI-H23 34.4 µM | NCI/ADR-RES 43.5 µM | SK-MEL-2 > 100 µM | SK-OV-3 69.2 µM | SNB-75 30.1 µM | SR 37.6 µM | SW-620 45.8 µM | TK-10 > 100 µM | UACC-257 > 100 µM | UACC-62 45.8 µM

OC(c1ccsc1)c1cc2ccccc2s1 (configuration not stated)
inactive: COLO 205 > 10 µM | HL-60 > 10 µM | HOP-92 > 10 µM | HT-29 > 10 µM | Hs-578T > 10 µM | IGROV-1 > 10 µM | MCF7 > 10 µM | MDA-MB-231 > 10 µM | MDA-MB-435 > 10 µM | NCI-H23 > 10 µM | NCI/ADR-RES > 10 µM | SK-MEL-2 > 10 µM | SK-OV-3 > 10 µM | SNB-75 > 10 µM | SR > 10 µM | SW-620 > 10 µM | TK-10 > 10 µM | UACC-257 > 10 µM | UACC-62 > 10 µM

CCOC(=O)c1cn(C)nc1N/C(C)=C\C(=O)c1ccccc1
inactive: COLO 205 > 100 µM | HL-60 > 100 µM | HOP-92 > 100 µM | HT-29 60.1 µM | Hs-578T > 100 µM | IGROV-1 > 100 µM | MCF7 > 100 µM | MDA-MB-231 20.9 µM | MDA-MB-435 > 100 µM | NCI-H23 > 100 µM | NCI/ADR-RES > 100 µM | SK-OV-3 > 100 µM | SR > 100 µM | SW-620 > 100 µM | TK-10 > 100 µM | UACC-257 > 100 µM | UACC-62 > 100 µM

COc1nc(C)nc2sc3c(c12)CCCC3
inactive: A498 > 100 µM | COLO 205 > 100 µM | HL-60 > 100 µM | HT-29 > 100 µM | Hs-578T > 100 µM | IGROV-1 > 100 µM | MCF7 > 100 µM | MDA-MB-231 > 100 µM | MDA-MB-435 > 100 µM | NCI-H23 > 100 µM | NCI/ADR-RES > 100 µM | SK-MEL-2 > 100 µM | SNB-75 93.3 µM | SR > 100 µM | SW-620 > 100 µM | TK-10 > 100 µM | UACC-257 > 100 µM | UACC-62 > 100 µM

OC(c1ccc(F)cc1)(c1ccc(F)cc1)C1CC1
inactive: A498 29.2 µM | COLO 205 16.2 µM | HL-60 21.3 µM | HOP-92 33.8 µM | HT-29 21.5 µM | Hs-578T 26.9 µM | IGROV-1 28.9 µM | MCF7 35.7 µM | MDA-MB-231 36.1 µM | MDA-MB-435 23 µM | NCI-H23 17.5 µM | NCI/ADR-RES 21.3 µM | SK-MEL-2 16.1 µM | SK-OV-3 37.9 µM | SNB-75 50.6 µM | SW-620 25.6 µM | TK-10 30.7 µM | UACC-257 26 µM | UACC-62 23.9 µM

C=C[C@@H](C)[C@H](NS(=O)(=O)c1ccc(C)cc1)C(=O)OCC
inactive: A498 48.5 µM | COLO 205 52.2 µM | HL-60 57 µM | HT-29 27.2 µM | Hs-578T 19.7 µM | IGROV-1 25.8 µM | MCF7 28.8 µM | MDA-MB-231 > 100 µM | MDA-MB-435 21.4 µM | NCI-H23 39.4 µM | NCI/ADR-RES 41.3 µM | SK-MEL-2 33.3 µM | SK-OV-3 36.6 µM | SNB-75 15.3 µM | SR 30.8 µM | SW-620 40.3 µM | TK-10 52.6 µM | UACC-257 24.9 µM | UACC-62 12.8 µM

Cc1ccc(/C=C/C(=O)Oc2ccc(/C=C3\CCC/C(=C\c4ccc(OC(=O)/C=C/c5ccc(C)cc5)cc4)C3=O)cc2)cc1
inactive: COLO 205 > 100 µM | HL-60 57.4 µM | HOP-92 77.6 µM | HT-29 > 100 µM | Hs-578T 19 µM | MCF7 > 100 µM | MDA-MB-231 28.8 µM | MDA-MB-435 > 100 µM | NCI-H23 > 100 µM | NCI/ADR-RES 59.3 µM | SK-MEL-2 48.3 µM | SNB-75 14.2 µM | SR 27.5 µM | SW-620 > 100 µM | TK-10 31.4 µM | UACC-257 > 100 µM | UACC-62 74.1 µM

Cc1cnc(-n2c(C)nc3cc(Cl)ccc3c2=O)s1
inactive: A498 20.4 µM | COLO 205 19 µM | HL-60 26 µM | HOP-92 47.6 µM | HT-29 32.7 µM | Hs-578T 74.6 µM | IGROV-1 40 µM | MCF7 17.9 µM | MDA-MB-231 42.5 µM | MDA-MB-435 28.1 µM | NCI-H23 23.3 µM | NCI/ADR-RES 28 µM | SK-MEL-2 25.4 µM | SK-OV-3 > 100 µM | SNB-75 10.6 µM | SW-620 43 µM | TK-10 43.1 µM | UACC-257 29.1 µM | UACC-62 23.2 µM

Cc1ccc2c(=O)[nH]sc2c1
inactive: A498 64.1 µM | COLO 205 3.82 µM | HL-60 13.1 µM | HT-29 16.7 µM | Hs-578T 21.5 µM | IGROV-1 19.7 µM | MCF7 17.1 µM | MDA-MB-231 17.3 µM | MDA-MB-435 14.5 µM | NCI-H23 17.7 µM | NCI/ADR-RES 21.6 µM | SK-MEL-2 37.7 µM | SK-OV-3 > 100 µM | SNB-75 71.6 µM | SR 3.69 µM | SW-620 12.6 µM | TK-10 18.4 µM | UACC-257 18.4 µM | UACC-62 17.1 µM

CSC1=N/C(=C\c2ccco2)C(=O)N1CN1CCOCC1
inactive: A498 > 60.1 µM | COLO 205 38.5 µM | HT-29 33.6 µM | Hs-578T > 100 µM | IGROV-1 > 61.1 µM | MCF7 23 µM | MDA-MB-231 > 63.1 µM | MDA-MB-435 > 62.2 µM | NCI-H23 > 100 µM | NCI/ADR-RES > 61.8 µM | SK-MEL-2 > 91.4 µM | SK-OV-3 > 100 µM | SNB-75 > 100 µM | SR 41.3 µM | SW-620 31.7 µM | TK-10 > 58.1 µM | UACC-257 29.7 µM | UACC-62 44.6 µM

CO[C@H]1C[C@H](n2cc(C)c(=O)[nH]c2=O)O[C@@H]1CO
inactive: A498 > 100 µM | COLO 205 > 100 µM | HL-60 > 100 µM | HT-29 > 100 µM | Hs-578T > 100 µM | IGROV-1 > 100 µM | MCF7 > 100 µM | MDA-MB-231 > 100 µM | MDA-MB-435 > 100 µM | NCI-H23 > 100 µM | NCI/ADR-RES > 100 µM | SK-OV-3 > 100 µM | SNB-75 > 100 µM | SR > 100 µM | SW-620 > 100 µM | TK-10 > 100 µM | UACC-257 > 100 µM | UACC-62 > 100 µM
